{"source": "paper PMC12135518", "about": "(Antimicrobial Agents and Chemotherapy, 2025)", "key": {"[1]": {"conditions": "at equivalent dosages, cited from earlier work", "source_text": "Different pharmacokinetic characteristics are anticipated in renal transplant patients depending on the unique physiologic status of these patients ([18], [19]). Moreover, in the early postoperative phase following kidney transplantation, patients undergo gradual recovery of renal function, accompanied by increased urine output and a rapid decline in serum creatinine levels, typically returning to normal within 2–4 weeks ([20][–][22]). […] In addition, renal transplant patients are mor ..."}, "plasma albumin": {"system": "plasma albumin", "conditions": "ref not given; cited from earlier work", "source_text": "After that, a suitable maintaining dose should be employed to sustain the target concentration."}, "[2]": {"experiment": "Population pharmacokinetic modeling of teicoplanin plasma concentrations (two-compartment model, Phoenix NLME, FOCE-ELS)", "format": "in vivo, renal transplant patients", "experimental": "This prospective study was conducted at the kidney transplantation department in the Second Xiangya Hospital of Central South University (Changsha, China). […] The exclusion criteria were as follows: (i) lack any of the demographic and laboratory data described below, (ii) unable to get the blood samples, and (iii) pregnancy. This study was approved by the Ethics Committee of the Second Xiangya Hospital, Central South University, and informed consent was obtained from all patients or legal representatives of the patients. The study employed a two-phase enrollment design to establish and validate the population PK model. Initial model development utilized patient data collected between January 2022 and December 2023. Following the establishment of the final population PK model, a distinct cohort of patients was prospectively recruited between November 2024 and March 2025 to conduct an external validation.\nThe supernatant was immediately stored at −80℃ until analysis.\nPlasma samples (200 µL) were extracted by protein precipitation with MARG-1A (500 µL), after vortex oscillation for 1 minute, centrifugation at 14,500 r/min for 8 min, and 600 µL of the clear supernatant was transferred into autosampler vials for further analysis.\nOne-, two-, and three-compartment models with first-order elimination were evaluated as potential structural PK models based on changes in the objective function value (OFV, −2 × log-likelihood) and goodness-of-fit plots. The inter-individual variability of the PK parameters was evaluated using an exponential model. Residual variability was selected with additive, proportional, and combined error models:\nThe following patient covariates were tested for their influence on the PK parameters of teicoplanin: age, sex, body weight, ALT, AST, TBIL, DBIL, ALB, baseline, and real-time CrCL. The stepwise covariate modeling (SCM) approach was used to test the covariate model in this analysis. A reduction in OFVs of ≥3.84 was considered to be statistically significant (P < 0.05) for the inclusion of one covariate in the forward inclusion steps, and an increase in OFVs of ≥6.63 was considered to be statistically significant (P < 0.01) in the backward elimination steps.\nThe validity of the final model was assessed by visual inspection of goodness-of-fit (GoF) plots, including observed concentrations versus individual predictions (IPRED), observed concentrations versus population predictions (PRED), and conditional weighted residuals (CWRES) versus population predictions and time. Next, the accuracy and stability of the final model were evaluated using the bootstrap method. The medians and 95% confidence intervals of the PK parameter estimates were obtained from the 1,000 bootstrap runs. The model was considered stable if the typical population values for the PK parameters of the final model were within the 95% confidence interval of the bootstrap results, and the biases were less than 10% with no bias across zero."}, "[3]": {"conditions": "cited from earlier work"}, "MRSA": {"system": "MRSA", "conditions": "patients achieving AUC24h/MIC ≥900; cited from earlier work"}, "[4]": {"conditions": "renal transplant patients, 306 plasma samples from 79 patients"}}, "note": "Read-outs that look alike come from different tables or passages of the source."}
{"substance": "polymyxin B", "values": [{"measurement": "incidence of neurological toxicity", "setting": "[1]; other patients", "value": 27, "unit": "%"}, {"measurement": "incidence of pigment toxicity", "setting": "[1]; other patients", "value": 15, "unit": "%"}, {"measurement": "incidence of neurological toxicity", "setting": "[1]; renal transplant patients", "value": 63.4, "unit": "%"}, {"measurement": "incidence of pigment toxicity", "setting": "[1]; renal transplant patients", "value": 51.5, "unit": "%"}]}
{"substance": "teicoplanin", "values": [{"measurement": "plasma protein binding rate", "setting": "plasma albumin", "value": "about 90%"}, {"measurement": "CL, bootstrap estimate (median)", "setting": "[2]; bootstrap method (n = 992)", "value": 0.714, "unit": "L/h"}, {"measurement": "CLd, bootstrap estimate (median)", "setting": "[2]; bootstrap method (n = 992)", "value": 4.22, "unit": "L/h"}, {"measurement": "CrCLCL, bootstrap estimate (median)", "setting": "[2]; bootstrap method (n = 992)", "value": 0.196}, {"measurement": "Vc, bootstrap estimate (median)", "setting": "[2]; bootstrap method (n = 992)", "value": 11.3, "unit": "L"}, {"measurement": "Vp, bootstrap estimate (median)", "setting": "[2]; bootstrap method (n = 992)", "value": 35, "unit": "L"}, {"measurement": "distribution (volume) in the present model", "setting": "[2]; renal transplant patients", "value": 46.6, "unit": "L"}, {"measurement": "CLd, clearance between the central compartment and peripheral compartment (final model estimate)", "setting": "[2]; [4]", "value": 4.22, "unit": "L/h"}, {"measurement": "Vc, volume distribution in the central compartment (final model estimate)", "setting": "[2]; [4]", "value": 11.3, "unit": "L"}, {"measurement": "Vp, volume in the peripheral compartment (final model estimate)", "setting": "[2]; [4]", "value": 35.3, "unit": "L"}, {"measurement": "CL, clearance in the central compartment (final model estimate, typical value)", "setting": "[2]; renal transplant patients, iv 400 mg q12h x3 then 400 mg once daily, 1 h infusion, 306 plasma samples from 79 patients, 2LC-MS/MS, CL=0.711×(CrCL÷17)^0.198", "value": 0.711, "unit": "L/h"}, {"measurement": "distribution (volume) in previous models", "setting": "[3]; mostly critically ill patients", "value": "60.5 to 121.1", "unit": "L"}, {"measurement": "CL in critically ill patients", "setting": "[3]; previously reported values, critically ill patients, no ref printed at the value", "value": "0.838 to 1.03", "unit": "L/h"}, {"measurement": "treatment success rate", "setting": "MRSA", "value": 87, "unit": "%"}]}
